# In PubChem BioAssay AID330 (DTP/NCI, 2004):
# Several values for one entry are separate records, joined by “and”; a condition that tells them apart may be missing. Equal entries are not always repeated. Inconclusive results and toxic doses are left out.
# Test system: P388 leukemia ip, CD2F1 mice, survival T/C
# Test: NCI In Vivo Anticancer Drug Screen. Data for tumor model P388 Leukemia (intraperitoneal) in CD2F1 (CDF1) mice
# Conditions: endpoint: median survival time, higher = longer survival
# Procedure, shortened: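 Mice carrying the transplanted tumor received test compound or vehicle. Survival was recorded in each group, and the value is the treated-group measurement divided by that of the vehicle-treated control group.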
# [1] = dose: 60.0 mg/kg/injection, schedule: Q01DX005 (ip), vehicle: saline with Tween-80
# [2] = dose: 120.0 mg/kg/injection, schedule: Q01DX005 (ip), vehicle: saline with Tween-80
# [3] = dose: 100.0 mg/kg/injection, schedule: Q01DX001 (ip), vehicle: Klucel (hydroxypropylcellulose) (HPC)
# [4] = dose: 200.0 mg/kg/injection, schedule: Q01DX001 (ip), vehicle: Klucel (hydroxypropylcellulose) (HPC)
# [5] = dose: 50.0 mg/kg/injection, schedule: Q01DX005 (ip), vehicle: saline with Tween-80
# [6] = dose: 100.0 mg/kg/injection, schedule: Q01DX005 (ip), vehicle: saline with Tween-80
# [7] = dose: 200.0 mg/kg/injection, schedule: Q01DX005 (ip), vehicle: saline with Tween-80
# [8] = dose: 60.0 mg/kg/injection, schedule: Q01DX005 (ip), vehicle: Klucel (hydroxypropylcellulose) (HPC)
# [9] = dose: 120.0 mg/kg/injection, schedule: Q01DX005 (ip), vehicle: Klucel (hydroxypropylcellulose) (HPC)
# [10] = dose: 240.0 mg/kg/injection, schedule: Q01DX005 (ip), vehicle: Klucel (hydroxypropylcellulose) (HPC)
# [11] = dose: 200.0 mg/kg/injection, schedule: Q01DX009 (ip), vehicle: saline with Tween-80
# [12] = dose: 400.0 mg/kg/injection, schedule: Q01DX009 (ip), vehicle: saline with Tween-80
# [13] = dose: 240.0 mg/kg/injection, schedule: Q01DX005 (ip), vehicle: saline with Tween-80
# [14] = dose: 6.25 mg/kg/injection, schedule: Q01DX009 (ip), vehicle: saline
# [15] = dose: 12.5 mg/kg/injection, schedule: Q01DX009 (ip), vehicle: saline
# [16] = dose: 25.0 mg/kg/injection, schedule: Q01DX009 (ip), vehicle: saline
# [17] = dose: 50.0 mg/kg/injection, schedule: Q01DX005 (ip), vehicle: saline
# [18] = dose: 100.0 mg/kg/injection, schedule: Q01DX005 (ip), vehicle: saline
# [19] = dose: 200.0 mg/kg/injection, schedule: Q01DX005 (ip), vehicle: saline
structure (smiles),measurement,setting,value
CCOC(=O)C1=C(C(=O)c2ccc(C)cc2)C(c2ccc(Cl)cc2Cl)C(C(=O)c2ccc(C)cc2)=C(C(=O)OCC)N1,T/C,[1],89 % of control
same,T/C,[2],98 % of control
COC(=O)C1CCC(c2ccccc2)(c2ccccc2)C1=O.COC(=O)C1CCC(c2ccccc2)(c2ccccc2)C1=O.[Cu] (centres undefined),T/C,[3],100 % of control
same,T/C,[4],100 % of control
same,T/C,"dose: 400.0 mg/kg/injection, schedule: Q01DX001 (ip), vehicle: Klucel (hydroxypropylcellulose) (HPC)",102 % of control
CNc1nc2c(C)ccc3[nH]c(N(C)C)nc3c-2n1,T/C,"dose: 25.0 mg/kg/injection, schedule: Q01DX005 (ip), vehicle: Klucel (hydroxypropylcellulose) (HPC)",100 % of control
same,T/C,"dose: 50.0 mg/kg/injection, schedule: Q01DX005 (ip), vehicle: Klucel (hydroxypropylcellulose) (HPC)",99 % of control
same,T/C,"dose: 100.0 mg/kg/injection, schedule: Q01DX005 (ip), vehicle: Klucel (hydroxypropylcellulose) (HPC)",91 % of control
CCOC(=O)CC1(O)CS/C(=C(\C#N)C(=O)OCC)S1 (centres undefined),T/C,[5],102 % of control
same,T/C,[6],102 % of control
same,T/C,[7],98 % of control
NC(CSCc1ccccc1)P(=O)(O)O (centres undefined),T/C,[8],105 % of control
same,T/C,[9],98 % of control
same,T/C,[10],91 % of control
Nc1ccc(S(N)(=O)=O)cc1,T/C,"dose: 12.5 mg/kg/injection, schedule: Q01DX009 (ip), vehicle: saline with Tween-80",105 % of control and 112 % of control
same,T/C,"dose: 150.0 mg/kg/injection, schedule: Q01DX009 (ip), vehicle: saline with Tween-80",108 % of control and 97 % of control
same,T/C,[11],101 % of control and 89 % of control
same,T/C,[12],98 % of control and 100 % of control
Cc1noc2c1C(=O)c1ccccc1SC2,T/C,[1],103 % of control
same,T/C,[2],94 % of control
same,T/C,[13],105 % of control
COc1ccc(CC(=O)c2ccc3c(c2O)C=CC(C)(C)O3)cc1OC,T/C,[5],98 % of control
same,T/C,[6],99 % of control
same,T/C,[7],89 % of control
CCCC(C)(C(=O)Nc1ccc2nc(C)cc(N)c2c1)C(=O)Nc1ccc2nc(C)cc(N)c2c1,T/C,[5],94 % of control
same,T/C,[6],96 % of control
C[N+]1(C)CCOC(O)(c2ccccc2)C1 (centres undefined),T/C,[14],104 % of control
same,T/C,[15],98 % of control
same,T/C,[16],100 % of control
c1ccc([P+](NCCN[P+](c2ccccc2)(c2ccccc2)c2ccccc2)(c2ccccc2)c2ccccc2)cc1,T/C,[14],97 % of control
same,T/C,[15],100 % of control
C/C(=N\NC1=NCCN1)c1cn(C2=NCCN2)nc1C,T/C,"dose: 15.0 mg/kg/injection, schedule: Q01DX005 (ip), vehicle: saline",99 % of control
same,T/C,"dose: 30.0 mg/kg/injection, schedule: Q01DX005 (ip), vehicle: saline",97 % of control
same,T/C,"dose: 60.0 mg/kg/injection, schedule: Q01DX005 (ip), vehicle: saline",102 % of control and 106 % of control
O=C1C2=C(/C=C/c3ccccc3)OCCC2=NN1c1ccccc1,T/C,[8],94 % of control
same,T/C,[9],98 % of control
same,T/C,[10],109 % of control
COC(=O)C(CCl)NC(C)=O (centres undefined),T/C,[17],97 % of control
same,T/C,[18],100 % of control
same,T/C,[19],101 % of control
O=C(O)COc1cccc2c(=O)cc(-c3ccccc3)oc12,T/C,[17],102 % of control
same,T/C,[18],101 % of control
same,T/C,[19],99 % of control
O=C(Nc1ccc2ccccc2c1)C1C(=O)C(=O)N(c2ccc3ccccc3c2)C1=O (centres undefined),T/C,"dose: 50.0 mg/kg/injection, schedule: Q01DX009 (ip), vehicle: Klucel (hydroxypropylcellulose) (HPC)",106 % of control
same,T/C,"dose: 100.0 mg/kg/injection, schedule: Q01DX009 (ip), vehicle: Klucel (hydroxypropylcellulose) (HPC)",106 % of control
same,T/C,"dose: 200.0 mg/kg/injection, schedule: Q01DX009 (ip), vehicle: Klucel (hydroxypropylcellulose) (HPC)",108 % of control
OCC1OC(n2cnc3c2NC=NC[C@H]3O)C(O)C1O (some centres undefined),T/C,"dose: 0.1 mg/kg/injection, schedule: Q01DX009 (ip), vehicle: saline",106 % of control
same,T/C,"dose: 0.2 mg/kg/injection, schedule: Q01DX005 (ip), vehicle: saline",104 % of control
same,T/C,"dose: 0.2 mg/kg/injection, schedule: Q01DX009 (ip), vehicle: saline",111 % of control
same,T/C,"dose: 0.4 mg/kg/injection, schedule: Q01DX005 (ip), vehicle: saline",107 % of control
same,T/C,"dose: 0.4 mg/kg/injection, schedule: Q01DX009 (ip), vehicle: saline",103 % of control
same,T/C,"dose: 0.78 mg/kg/injection, schedule: Q01DX005 (ip), vehicle: saline",99 % of control
same,T/C,"dose: 0.8 mg/kg/injection, schedule: Q01DX005 (ip), vehicle: saline",100 % of control
same,T/C,"dose: 1.56 mg/kg/injection, schedule: Q01DX005 (ip), vehicle: saline",97 % of control
COc1cccc2c1C(=O)c1c(O)c3c(c(O)c1C2=O)CC(O)(c1csc(N)n1)CC3O (centres undefined),T/C,"dose: 1.56 mg/kg/injection, schedule: Q01DX009 (ip), vehicle: other",100 % of control
same,T/C,"dose: 3.13 mg/kg/injection, schedule: Q01DX009 (ip), vehicle: other",107 % of control
same,T/C,"dose: 6.25 mg/kg/injection, schedule: Q01DX009 (ip), vehicle: other",101 % of control
same,T/C,"dose: 12.5 mg/kg/injection, schedule: Q01DX009 (ip), vehicle: other",108 % of control
same,T/C,"dose: 25.0 mg/kg/injection, schedule: Q01DX009 (ip), vehicle: other",107 % of control
same,T/C,"dose: 50.0 mg/kg/injection, schedule: Q01DX009 (ip), vehicle: other",108 % of control
BrCCN(CCBr)c1ccc2c3c(cccc13)-c1ccccc1-2,T/C,"dose: 4.0 mg/kg/injection, schedule: Q01DX009 (ip), vehicle: saline with Tween-80",160 % of control and 163 % of control
same,T/C,"dose: 6.0 mg/kg/injection, schedule: Q01DX009 (ip), vehicle: saline with Tween-80",178 % of control
same,T/C,"dose: 6.25 mg/kg/injection, schedule: Q01DX009 (ip), vehicle: saline with Tween-80",154 % of control
same,T/C,"dose: 9.0 mg/kg/injection, schedule: Q01DX009 (ip), vehicle: saline with Tween-80",117 % of control
same,T/C,"dose: 100.0 mg/kg/injection, schedule: Q04DX003 (ip), vehicle: saline with Tween-80",104 % of control
same,T/C,"dose: 200.0 mg/kg/injection, schedule: Q04DX003 (ip), vehicle: saline with Tween-80",104 % of control
O=[N+]([O-])c1ccc2c(c1)sc1cc([N+](=O)[O-])c(Br)cc12,T/C,"dose: 50.0 mg/kg/injection, schedule: Q01DX009 (ip), vehicle: saline with Tween-80",104 % of control
same,T/C,"dose: 100.0 mg/kg/injection, schedule: Q01DX009 (ip), vehicle: saline with Tween-80",102 % of control
same,T/C,[11],112 % of control
same,T/C,[12],103 % of control
CCOC(=O)c1ccc(NC(=O)OC2CCCC2)cc1,T/C,[1],92 % of control
same,T/C,[2],90 % of control
same,T/C,[13],89 % of control
Cc1ccc(NC(=O)c2cc3ccccc3cc2O)c(C)c1.Cc1ccc(NC(=O)c2cc3ccccc3cc2O)c(C)c1.[Mn+2],T/C,"dose: 50.0 mg/kg/injection, schedule: Q01DX009 (ip), vehicle: saline",87 % of control
same,T/C,"dose: 100.0 mg/kg/injection, schedule: Q01DX009 (ip), vehicle: saline",86 % of control
same,T/C,"dose: 200.0 mg/kg/injection, schedule: Q01DX009 (ip), vehicle: saline",86 % of control
CS(=O)CC(C)(O)C1OC(=O)C=C2C3(C)CC4OC4C4(C)C(=O)OC(C34)C3OC231 (centres undefined),T/C,"dose: 2.5 mg/kg/injection, schedule: Q01DX009 (ip), vehicle: DMSO",108 % of control
same,T/C,"dose: 20.0 mg/kg/injection, schedule: Q01DX009 (ip), vehicle: DMSO",151 % of control
O=CN(CCO)CCO,T/C,[17],107 % of control
same,T/C,[18],94 % of control
same,T/C,[19],114 % of control
COc1cc2c(c(OC)c1OC)-c1ccc(SC)c(=O)cc1[C@@H](NC1OC(CO)C(O)C(O)C1O)CC2 (some centres undefined),T/C,"dose: 3.12 mg/kg/injection, schedule: Q01DX009 (ip), vehicle: saline",107 % of control and 111 % of control
same,T/C,"dose: 3.13 mg/kg/injection, schedule: Q01DX009 (ip), vehicle: saline",115 % of control
same,T/C,[14],118 % of control [middle of 4 runs]
same,T/C,[15],123 % of control
same,T/C,[16],118 % of control and 122 % of control
Cc1ccc(S(=O)(=O)N/N=C2/C=CC3(CC2)CC2C=CC3C2)cc1 (centres undefined),T/C,"dose: 50.0 mg/kg/injection, schedule: Q01DX001 (ip), vehicle: Klucel (hydroxypropylcellulose) (HPC)",91 % of control
same,T/C,[3],89 % of control
same,T/C,[4],101 % of control
